# Assay results as given in the supplement of paper PMC10307832.
# Experiments:
# Test in all cases: relative viability (nuclei count vs DMSO), 5 days (fraction); higher = more cells survive
# XMD14-99 + AZD7762 = compound: CN1CCN(CC1)C2=CC(=C(C=C2)NC3=NC(=C(S3)C(=O)C4=C(C=CC=C4Cl)Cl)N)OC [XMD14-99] + NC(=O)Nc1cc(-c2cccc(F)c2)sc1C(=O)N[C@H]1CCCNC1 [AZD7762] (partner 0.2 µM)
# In short: (§1)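 Each reported value is a median over duplicate plates. It expresses relative viability: treated-well nuclei count divided by vehicle-well nuclei count. Lung cancer cell lines in 1536-well plates were dosed by pin tool a day after seeding, alone with one drug or with a fixed anchor-drug dose plus five library-drug doses (not always all listed) in √10 steps, and nuclei were counted after 5 days.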
# XMD14-99 + Luminespib = compound: CN1CCN(CC1)C2=CC(=C(C=C2)NC3=NC(=C(S3)C(=O)C4=C(C=CC=C4Cl)Cl)N)OC [XMD14-99] + CCNC(=O)c1noc(-c2cc(C(C)C)c(O)cc2O)c1-c1ccc(CN2CCOCC2)cc1 [Luminespib] (partner 0.01 µM)
# In short: as §1
# AZD1208 + Palbociclib = compound: N[C@@H]1CCCN(c2c(/C=C3\SC(=O)NC3=O)cccc2-c2ccccc2)C1 [AZD1208] + CC(=O)c1c(C)c2cnc(Nc3ccc(N4CCNCC4)cn3)nc2n(C2CCCC2)c1=O [Palbociclib] (partner 0.5 µM)
# In short: as §1
# XMD14-99 + Palbociclib = compound: CN1CCN(CC1)C2=CC(=C(C=C2)NC3=NC(=C(S3)C(=O)C4=C(C=CC=C4Cl)Cl)N)OC [XMD14-99] + CC(=O)c1c(C)c2cnc(Nc3ccc(N4CCNCC4)cn3)nc2n(C2CCCC2)c1=O [Palbociclib] (partner 0.5 µM)
# In short: as §1
Cell Line,relative viability (XMD14-99 + AZD7762; first compound 0.08 µM),relative viability (XMD14-99 + AZD7762; first compound 0.8 µM),relative viability (XMD14-99 + AZD7762; first compound 2.53 µM),relative viability (XMD14-99 + AZD7762; first compound 8 µM),relative viability (XMD14-99 + Luminespib; first compound 0.08 µM),relative viability (XMD14-99 + Luminespib; first compound 0.8 µM),relative viability (XMD14-99 + Luminespib; first compound 2.53 µM),relative viability (XMD14-99 + Luminespib; first compound 8 µM),relative viability (AZD1208 + Palbociclib; first compound 0.08 µM),relative viability (AZD1208 + Palbociclib; first compound 0.253 µM),relative viability (AZD1208 + Palbociclib; first compound 0.8 µM),relative viability (AZD1208 + Palbociclib; first compound 2.53 µM),relative viability (AZD1208 + Palbociclib; first compound 8 µM),relative viability (XMD14-99 + Palbociclib; first compound 0.08 µM),relative viability (XMD14-99 + Palbociclib; first compound 0.8 µM),relative viability (XMD14-99 + Palbociclib; first compound 2.53 µM),relative viability (XMD14-99 + Palbociclib; first compound 8 µM)
HARA,0.334,0.261,0.237,0.217,0.311,0.685,0.581,0.207,0.268,0.258,0.246,0.291,0.261,0.291,0.25,0.281,0.204
NCI-H1395,0.387,0.462,0.363,0.38,0.733,0.685,0.699,0.555,0.598,0.653,0.572,0.62,0.521,0.58,0.678,0.688,0.602
NCI-H1993,0.879,0.702,0.82,0.593,0.849,0.761,0.782,0.632,0.595,0.578,0.439,0.544,0.432,0.7,0.682,0.533,0.625
LU99A,0.3,0.227,0.31,0.235,0.288,0.252,0.247,0.219,0.379,0.414,0.398,0.339,0.319,0.382,0.415,0.396,0.328
NCI-H1355,0.85,0.625,0.652,0.572,0.843,0.799,0.67,0.617,0.396,0.37,0.372,0.385,0.318,0.393,0.419,0.383,0.331
HCC-15,1.22,1.17,1.21,1.04,0.412,0.258,0.214,0.256,0.748,0.872,0.68,0.711,0.657,0.733,0.765,0.733,0.629
EKVX,0.654,0.692,0.651,0.522,0.905,0.814,0.768,0.802,0.383,0.41,0.336,0.332,0.419,0.358,0.403,0.377,0.361
NCI-H2126,0.979,0.984,1.05,0.942,0.966,0.827,0.873,0.595,0.363,0.362,0.349,0.33,0.382,0.326,0.337,0.37,0.362
LK-2,0.375,0.41,0.354,0.235,0.183,0.188,0.206,0.171,0.58,0.486,–,0.294,0.266,0.572,0.804,0.655,0.611
NCI-H1437,1.18,1.05,0.991,0.719,1.12,0.992,0.949,0.862,0.288,0.353,0.302,0.263,0.291,0.307,0.311,0.252,0.221
ABC-1,0.859,1.03,0.865,0.762,0.511,0.7,0.806,0.382,0.815,0.631,0.474,0.563,0.444,0.783,0.722,0.651,0.634
SW 900,0.633,0.681,0.71,0.548,0.165,0.163,0.204,0.144,0.524,0.49,0.497,0.571,0.511,0.57,0.567,0.514,0.359
PC-14,0.37,0.416,0.36,0.309,0.156,0.151,0.156,0.171,0.511,0.59,0.502,0.532,0.475,0.567,0.527,0.5,0.24
A-427,0.692,0.621,0.496,0.454,1.02,1.07,0.875,0.617,0.546,0.548,0.495,0.551,0.527,0.515,0.554,0.488,0.452
NCI-H1792,0.822,0.556,0.599,0.305,0.543,0.456,0.354,0.326,0.697,0.663,0.616,0.587,0.554,0.64,0.697,0.631,0.598
LCLC-97TM1,0.346,0.293,0.303,0.227,0.843,0.747,0.728,0.516,0.197,0.203,0.199,0.216,0.19,0.197,0.239,0.321,0.203
LCLC-103H,0.804,0.837,0.781,0.681,0.984,1.1,0.84,0.847,0.494,0.417,0.52,0.462,0.434,0.487,0.491,0.421,0.481
RERF-LC-KJ,0.902,1,0.86,0.794,1.26,1.13,1.05,0.822,1.05,1.09,1,1.02,0.802,1.01,1.04,0.952,0.9
BEN,0.594,0.736,0.596,0.514,0.377,0.419,0.271,0.285,0.565,0.446,0.472,0.505,0.431,0.489,0.468,0.478,0.476
